ChEMBL document CHEMBL1152101, “Boric acid effect ont he hydrolysis of 4-nitrophenyl 2,3-dihydroxybenzoate: mimic of borate inhibition of serine proteases” (Bioorg Med Chem Lett, 1993)

How the values were obtained:
[1] = Hydrolysis rate constant was determined; assay type: ADME
[2] = molecular target: T1, Chymotrypsinogen A (Bos taurus, UniProt P00766); assay: Tested for inhibition of hydrolysis in presence of alpha-chymotrypsin and […](Apparent inhibition constant)
[3] = Tested for hydrolysis in presence of boric acid, dissociation constant was evaluated at the pH 9.5(Apparent inhibition constant); assay type: ADME
[4] = Tested for hydrolysis in presence of boric acid, rate constant was evaluated at the pH 8.5; assay type: ADME; details: buffer
[5] = molecular target: T1, Chymotrypsinogen A; assay: Tested for inhibition of hydrolysis in presence of alpha-chymotrypsin and phenylboronic acid(Apparent inhibition constant)
[6] = pKa value was determined; assay type: physicochemical
[7] = Tested for hydrolysis in presence of boric acid by UV spectrophotometry, dissociation constant was evaluated at the pH < 8; assay type: ADME
[8] = Tested for hydrolysis in presence of boric acid, rate constant was evaluated at the pH 9.5; assay type: ADME; details: buffer
[9] = Tested for hydrolysis in presence of phenylboronic acid, dissociation constant was evaluated at the pH 9.5(Apparent inhibition constant); assay type: ADME
[10] = Tested for hydrolysis in presence of phenylboronic acid, rate constant was evaluated at the pH 9.5; assay type: ADME; details: buffer
[11] = Tested for hydrolysis in presence of boric acid, dissociation constant was evaluated at the pH 8.5(Apparent inhibition constant); assay type: ADME

- K1 [1]: 0.000033 s⁻¹
- K2 [1]: 0.00026 s⁻¹
- Ki [2]: 40 mM
- Ki [3]: 230 µM
- KB [4]: 0.000018 s⁻¹
- Ki [5]: 200 µM
- pKa [6]: 8.8
- KB [7]: 0.00005 s⁻¹
- KB [8]: 0.000022 s⁻¹
- Ki [9]: 250 µM
- KB [10]: 0.000017 s⁻¹
- Ki [11]: 380 µM
Structure (SMILES): O=C(Oc1ccc([N+](=O)[O-])cc1)c1cccc(O)c1O
